# Experimental data taken from PMC5218480 (PLoS ONE, 2017).
# System: MV-4-11 cells
# Assay: Gene expression microarray analysis (Affymetrix PrimeView) and GSEA
# Assay type: cell-based, human
# Set-up: RFU PODN (11730768_x_at) / Fold change /veh PODN (11730768_x_at) / RFU LINC00158 (11744669_a_at) / Fold change /veh LINC00158 (11744669_a_at) / RFU DUSP10 (11751237_a_at) / Fold change /veh DUSP10 (11751237_a_at) / RFU ID3 (11757404_x_at) / Fold change /veh ID3 (11757404_x_at) / RFU PLEKHG5 (11737974_s_at) / Fold change /veh PLEKHG5 (11737974_s_at) / RFU LRRC4B (11730491_at) / Fold change /veh LRRC4B (11730491_at) / RFU GIMAP4 (11747438_a_at) / Fold change /veh GIMAP4 (11747438_a_at) / RFU KRT8 (11758183_x_at) / Fold change /veh KRT8 (11758183_x_at) / RFU CNN1 (11734310_a_at) / Fold change /veh CNN1 (11734310_a_at) / RFU VPS37D (11726825_at) / Fold change /veh VPS37D (11726825_at) / RFU C10orf10 (11716522_x_at) / Fold change /veh C10orf10 (11716522_x_at) / RFU KIR2DL2 /// KIR2DL4 /// KIR2DL5A /// KIR2DL5B /// KIR2DS1 /// KIR2DS2 /// KIR2DS3 /// KIR2DS4 /// KIR3DL3 /// KIR3DL3 /// KIR3DS1 (11738374_at) / Fold change /veh KIR2DL2 /// KIR2DL4 /// KIR2DL5A /// KIR2DL5B /// KIR2DS1 /// KIR2DS2 /// KIR2DS3 /// KIR2DS4 /// KIR3DL3 /// KIR3DL3 /// KIR3DS1 (11738374_at) / RFU C1QL1 (11718748_at) / Fold change /veh C1QL1 (11718748_at) / RFU TMPRSS4 (11747572_a_at) / Fold change /veh TMPRSS4 (11747572_a_at) / RFU HAMP (11756126_x_at) / Fold change /veh HAMP (11756126_x_at) / RFU RNFT2 (11725882_a_at) / Fold change /veh RNFT2 (11725882_a_at) / RFU NR4A2 (11747474_a_at) / Fold change /veh NR4A2 (11747474_a_at) / RFU ABCC12 (11746883_a_at) / Fold change /veh ABCC12 (11746883_a_at) / RFU TMEM136 (11760407_x_at) / Fold change /veh TMEM136 (11760407_x_at) / RFU CLDN22 /// WWC2 (11732394_at) / Fold change /veh CLDN22 /// WWC2 (11732394_at) / RFU HLA-DPB1 (11760878_x_at) / Fold change /veh HLA-DPB1 (11760878_x_at) / RFU SPINT1 (11716480_a_at) / Fold change /veh SPINT1 (11716480_a_at) / RFU GAP43 (11754022_s_at) / Fold change /veh GAP43 (11754022_s_at) / RFU A4GNT (11735810_at) / Fold change /veh A4GNT (11735810_at) / RFU PRB3 (11715151_x_at) / Fold change /veh PRB3 (11715151_x_at) / RFU TUBB4B (11761932_at) / Fold change /veh TUBB4B (11761932_at) / RFU CAPN14 (11732068_a_at) / Fold change /veh CAPN14 (11732068_a_at) / RFU TMCC2 (11721928_a_at) / Fold change /veh TMCC2 (11721928_a_at) / RFU IRGQ (11745062_a_at) / Fold change /veh IRGQ (11745062_a_at) / RFU FAM174B (11720279_a_at) / Fold change /veh FAM174B (11720279_a_at) / RFU TMPRSS4 (11748680_a_at) / Fold change /veh TMPRSS4 (11748680_a_at) / RFU FAM212B (11763350_a_at) / Fold change /veh FAM212B (11763350_a_at) / RFU PLEKHG5 (11743358_a_at) / Fold change /veh PLEKHG5 (11743358_a_at) / RFU ZSCAN30 (11745921_a_at) / Fold change /veh ZSCAN30 (11745921_a_at) / RFU CMKLR1 (11741424_a_at) / Fold change /veh CMKLR1 (11741424_a_at) / RFU LOC101060620 /// MAPK8IP1 (11723275_at) / Fold change /veh LOC101060620 /// MAPK8IP1 (11723275_at) / RFU SPTSSB (11747773_x_at) / Fold change /veh SPTSSB (11747773_x_at) / RFU PRSS12 (11739890_at) / Fold change /veh PRSS12 (11739890_at) / RFU BIN1 (11741810_x_at) / Fold change /veh BIN1 (11741810_x_at) / RFU WNT11 (11732464_a_at) / Fold change /veh WNT11 (11732464_a_at) / RFU C10orf10 (11716521_a_at) / Fold change /veh C10orf10 (11716521_a_at) / RFU C5orf56 (11738089_at) / Fold change /veh C5orf56 (11738089_at) / RFU CYB561 (11721691_x_at) / Fold change /veh CYB561 (11721691_x_at) / RFU ANKRD19P (11752326_a_at) / Fold change /veh ANKRD19P (11752326_a_at) / RFU OR2T12 /// OR2T33 /// OR2T8 (11738714_s_at) / Fold change /veh OR2T12 /// OR2T33 /// OR2T8 (11738714_s_at) / RFU VCAN (11748164_a_at) / Fold change /veh VCAN (11748164_a_at) / RFU JSRP1 (11732532_at) / Fold change /veh JSRP1 (11732532_at) / RFU KRTAP10-11 (11738290_x_at) / Fold change /veh KRTAP10-11 (11738290_x_at) / RFU MYO3A (11730013_a_at) / Fold change /veh MYO3A (11730013_a_at) / RFU EBF3 (11725865_a_at) / Fold change /veh EBF3 (11725865_a_at) / RFU CAMK2N1 (11719241_x_at) / Fold change /veh CAMK2N1 (11719241_x_at) / RFU C5orf56 (11738088_a_at) / Fold change /veh C5orf56 (11738088_a_at) / RFU OLFML3 (11715873_a_at) / Fold change /veh OLFML3 (11715873_a_at) / RFU LOC100653217 /// NTM (11731650_a_at) / Fold change /veh LOC100653217 /// NTM (11731650_a_at) / RFU MAPK11 (11762145_a_at) / Fold change /veh MAPK11 (11762145_a_at) / RFU FIZ1 (11724087_x_at) / Fold change /veh FIZ1 (11724087_x_at) / RFU OASL (11726364_x_at) / Fold change /veh OASL (11726364_x_at) / RFU SOX15 (11748057_x_at) / Fold change /veh SOX15 (11748057_x_at) / RFU CD79A (11719716_a_at) / Fold change /veh CD79A (11719716_a_at) / RFU HIST1H1D (11736915_at) / Fold change /veh HIST1H1D (11736915_at) / RFU CASKIN2 (11723855_a_at) / Fold change /veh CASKIN2 (11723855_a_at) / RFU LOC730098 (11760151_x_at) / Fold change /veh LOC730098 (11760151_x_at) / RFU OR4N2 (11742367_at) / Fold change /veh OR4N2 (11742367_at) / RFU PRRT2 (11749266_a_at) / Fold change /veh PRRT2 (11749266_a_at) / RFU SNX32 (11753110_a_at) / Fold change /veh SNX32 (11753110_a_at) / RFU CDHR5 (11726645_a_at) / Fold change /veh CDHR5 (11726645_a_at) / RFU RCAN1 (11760418_a_at) / Fold change /veh RCAN1 (11760418_a_at) / RFU FAM167A (11723789_a_at) / Fold change /veh FAM167A (11723789_a_at) / RFU FAM26E (11764081_at) / Fold change /veh FAM26E (11764081_at) / RFU ISYNA1 (11749810_s_at) / Fold change /veh ISYNA1 (11749810_s_at) / RFU ACY1 (11761880_at) / Fold change /veh ACY1 (11761880_at) / RFU 11764098_at / Fold change /veh 11764098_at / RFU SAMD14 (11745864_x_at) / Fold change /veh SAMD14 (11745864_x_at) / RFU NPB (11741838_a_at) / Fold change /veh NPB (11741838_a_at) / RFU TMPRSS6 (11731388_a_at) / Fold change /veh TMPRSS6 (11731388_a_at) / RFU KRTAP10-2 (11738614_at) / Fold change /veh KRTAP10-2 (11738614_at) / RFU ARHGAP8 /// PRR5-ARHGAP8 (11727945_x_at) / Fold change /veh ARHGAP8 /// PRR5-ARHGAP8 (11727945_x_at) / RFU KRTAP5-7 /// NADSYN1 (11734609_at) / Fold change /veh KRTAP5-7 /// NADSYN1 (11734609_at) / RFU RASL12 (11751679_a_at) / Fold change /veh RASL12 (11751679_a_at) / RFU CDKN2B (11736163_a_at) / Fold change /veh CDKN2B (11736163_a_at) / RFU PRF1 (11729649_at) / Fold change /veh PRF1 (11729649_at) / RFU, ZNF638 /// ZNF638-IT1 / Fold change vs veh, ZNF638 /// ZNF638-IT1 / RFU, PANK3 / Fold change vs veh, PANK3 / RFU, SH3YL1 / Fold change vs veh, SH3YL1 / RFU, ZEB2 / Fold change vs veh, ZEB2 / RFU, NRIP1 / Fold change vs veh, NRIP1 / RFU, PTTG1IP / Fold change vs veh, PTTG1IP / RFU, CAPN2 / Fold change vs veh, CAPN2 / RFU, MED14 / Fold change vs veh, MED14 / RFU, SNORA58 / Fold change vs veh, SNORA58 / RFU, C1orf63 / Fold change vs veh, C1orf63 / RFU, LRRFIP1 / Fold change vs veh, LRRFIP1 / RFU, NDUFAF7 / Fold change vs veh, NDUFAF7 / RFU, SLC12A2 / Fold change vs veh, SLC12A2 / RFU, IBTK / Fold change vs veh, IBTK / RFU, ESF1 / Fold change vs veh, ESF1 / Fold change vs veh, TMEM50B / RFU, TAOK1 / Fold change vs veh, TAOK1 / RFU, ACBD3 / Fold change vs veh, ACBD3 / RFU, TMA16 / Fold change vs veh, TMA16 / RFU, RWDD3 / Fold change vs veh, RWDD3 / RFU, BCAT1 / Fold change vs veh, BCAT1 / RFU, EDEM3 / Fold change vs veh, EDEM3 / RFU, TMEM33 / Fold change vs veh, TMEM33 / RFU, WDR75 / Fold change vs veh, WDR75 / RFU, AHCTF1 / Fold change vs veh, AHCTF1 / RFU, TFRC / Fold change vs veh, TFRC / RFU, ZDHHC17 / Fold change vs veh, ZDHHC17 / RFU, NOM1 / Fold change vs veh, NOM1 / RFU, ARL8B / Fold change vs veh, ARL8B / RFU, ZBTB11 / Fold change vs veh, ZBTB11 / RFU, TAMM41 / Fold change vs veh, TAMM41 / RFU, KIAA1704 /// LOC100996395 / Fold change vs veh, KIAA1704 /// LOC100996395 / RFU, ING1 / Fold change vs veh, ING1 / RFU, TRMT61B / Fold change vs veh, TRMT61B / RFU, FUBP3 / Fold change vs veh, FUBP3 / RFU, TP53 / Fold change vs veh, TP53 / RFU, TNKS2 / Fold change vs veh, TNKS2 / RFU, ZFP14 / Fold change vs veh, ZFP14 / RFU, ACTR2 / Fold change vs veh, ACTR2 / RFU, PPP3R1 / Fold change vs veh, PPP3R1 / RFU, PIK3R1 / Fold change vs veh, PIK3R1 / RFU, HNRNPA1 / Fold change vs veh, HNRNPA1 / RFU, RNF170 / Fold change vs veh, RNF170 / RFU, ZNF28 / Fold change vs veh, ZNF28 / RFU, RNGTT / Fold change vs veh, RNGTT / RFU, OGT / Fold change vs veh, OGT / RFU, BRD1 / Fold change vs veh, BRD1 / RFU, MARS / Fold change vs veh, MARS / RFU, ZNF655 / Fold change vs veh, ZNF655 / RFU, FAHD1 / Fold change vs veh, FAHD1 / RFU, BDP1 / Fold change vs veh, BDP1 / RFU, LRRCC1 / Fold change vs veh, LRRCC1 / RFU, ARID1A / Fold change vs veh, ARID1A / RFU, ZNF146 / Fold change vs veh, ZNF146 / RFU, ZNF330 / Fold change vs veh, ZNF330 / RFU, GPN3 / Fold change vs veh, GPN3 / RFU, C9orf123 / Fold change vs veh, C9orf123 / RFU, N4BP2L2 / Fold change vs veh, N4BP2L2 / RFU, ARFIP1 / Fold change vs veh, ARFIP1 / RFU, FAM179B / Fold change vs veh, FAM179B / RFU, BCL10 / Fold change vs veh, BCL10 / RFU, UHRF1BP1L / Fold change vs veh, UHRF1BP1L / RFU, BET1 / Fold change vs veh, BET1 / RFU, CNOT2 / Fold change vs veh, CNOT2 / RFU, ZNF268 / Fold change vs veh, ZNF268 / Fold change vs veh, ZNF507 / RFU, DGCR2 / Fold change vs veh, DGCR2 / RFU, WDSUB1 / Fold change vs veh, WDSUB1 / Fold change vs veh, HSP90B1 /// MIR3652 / RFU, ADSS / Fold change vs veh, ADSS / RFU, GK / Fold change vs veh, GK / RFU, ZNF148 / Fold change vs veh, ZNF148 / RFU, TAF9 / Fold change vs veh, TAF9 / RFU, SLC1A5 / Fold change vs veh, SLC1A5 / RFU, SLMO2 / Fold change vs veh, SLMO2 / RFU, ABCC4 / Fold change vs veh, ABCC4 / RFU, LOC101060439 /// RAP1B / Fold change vs veh, LOC101060439 /// RAP1B / RFU, RFX7 / Fold change vs veh, RFX7 / RFU, GTPBP10 / Fold change vs veh, GTPBP10 / RFU, CNEP1R1 / Fold change vs veh, CNEP1R1 / RFU, BIVM-ERCC5 /// ERCC5 / Fold change vs veh, BIVM-ERCC5 /// ERCC5 / RFU, ILF3 / Fold change vs veh, ILF3 / RFU 11762660_at / Fold change /veh 11762660_at / RFU VCAN (11757783_s_at) / Fold change /veh VCAN (11757783_s_at) / RFU DDX43 (11728927_at) / Fold change /veh DDX43 (11728927_at) / RFU KRT8 (11758188_x_at) / Fold change /veh KRT8 (11758188_x_at) / RFU NKD1 (11759106_at) / Fold change /veh NKD1 (11759106_at) / RFU SRD5A1 (11742802_a_at) / Fold change /veh SRD5A1 (11742802_a_at) / RFU TPSAB1 /// TPSB2 (11721975_s_at) / Fold change /veh TPSAB1 /// TPSB2 (11721975_s_at) / RFU GSTM3 (11746129_a_at) / Fold change /veh GSTM3 (11746129_a_at) / RFU IL23R (11737362_x_at) / Fold change /veh IL23R (11737362_x_at) / RFU TMEM51 (11727254_a_at) / Fold change /veh TMEM51 (11727254_a_at) / RFU PIWIL2 (11732686_x_at) / Fold change /veh PIWIL2 (11732686_x_at) / RFU ORM1 (11744905_x_at) / Fold change /veh ORM1 (11744905_x_at) / RFU CCDC152 (11743942_at) / Fold change /veh CCDC152 (11743942_at) / RFU ECM1 (11717891_a_at) / Fold change /veh ECM1 (11717891_a_at) / RFU IL23R (11748794_a_at) / Fold change /veh IL23R (11748794_a_at) / RFU TNFAIP8L3 (11732012_x_at) / Fold change /veh TNFAIP8L3 (11732012_x_at) / RFU MBOAT4 (11741988_at) / Fold change /veh MBOAT4 (11741988_at) / RFU 11764193_at / Fold change /veh 11764193_at / RFU TMEM53 (11763286_at) / Fold change /veh TMEM53 (11763286_at) / RFU MAGEB2 (11727129_at) / Fold change /veh MAGEB2 (11727129_at) / RFU TMEM200A (11744735_a_at) / Fold change /veh TMEM200A (11744735_a_at) / RFU CCDC152 (11751479_a_at) / Fold change /veh CCDC152 (11751479_a_at) / RFU FAM211A (11726209_a_at) / Fold change /veh FAM211A (11726209_a_at) / RFU RGS16 (11746705_a_at) / Fold change /veh RGS16 (11746705_a_at) / RFU VCAN (11755009_s_at) / Fold change /veh VCAN (11755009_s_at) / RFU RHOB (11743442_s_at) / Fold change /veh RHOB (11743442_s_at) / RFU RGS16 (11720943_a_at) / Fold change /veh RGS16 (11720943_a_at) / RFU RGS16 (11720944_at) / Fold change /veh RGS16 (11720944_at) / RFU, VPS4B / Fold change vs veh, VPS4B / RFU, CREB1 / Fold change vs veh, CREB1 / RFU, DNAJC13 / Fold change vs veh, DNAJC13 / RFU, GNAQ / Fold change vs veh, GNAQ / RFU, CDK5R1 / Fold change vs veh, CDK5R1 / RFU, ZRANB3 / Fold change vs veh, ZRANB3 / RFU, CUL4A / Fold change vs veh, CUL4A / RFU, CCNY / Fold change vs veh, CCNY / RFU, UFL1 / Fold change vs veh, UFL1 / RFU, COG3 / Fold change vs veh, COG3 / RFU, DIAPH2 / Fold change vs veh, DIAPH2 / RFU, SKA2 / Fold change vs veh, SKA2 / RFU, AFF3 / Fold change vs veh, AFF3 / RFU, LMF1 / Fold change vs veh, LMF1 / RFU, IPO11 / Fold change vs veh, IPO11 / RFU, DFFB / Fold change vs veh, DFFB / RFU, FOXP1 / Fold change vs veh, FOXP1 / RFU, CARD8 / Fold change vs veh, CARD8 / RFU, STRN3 / Fold change vs veh, STRN3 / RFU, ADK / Fold change vs veh, ADK / RFU, RASSF2 / Fold change vs veh, RASSF2 / RFU, WIPF1 / Fold change vs veh, WIPF1 / RFU, LARP1B / Fold change vs veh, LARP1B / RFU, RASA1 / Fold change vs veh, RASA1 / RFU, RB1 / Fold change vs veh, RB1 / RFU, PPFIA1 / Fold change vs veh, PPFIA1 / RFU, MAT2A / Fold change vs veh, MAT2A / RFU, CCT5 / Fold change vs veh, CCT5 / RFU, WDR92 / Fold change vs veh, WDR92 / RFU, CUX1 / Fold change vs veh, CUX1 / RFU, TTC7A / Fold change vs veh, TTC7A / RFU, TMEM135 / Fold change vs veh, TMEM135 / RFU, DEPTOR / Fold change vs veh, DEPTOR / RFU, CPM / Fold change vs veh, CPM / RFU, DNAJB6 / Fold change vs veh, DNAJB6 / RFU, CACNA2D3 / Fold change vs veh, CACNA2D3 / RFU, DTX4 / Fold change vs veh, DTX4 / RFU, TFCP2 / Fold change vs veh, TFCP2 / RFU, GMCL1 /// GMCL1P1 / Fold change vs veh, GMCL1 /// GMCL1P1 / RFU, AEBP2 / Fold change vs veh, AEBP2 / RFU, SNHG1 /// SNORD22 /// SNORD25 /// SNORD26 /// SNORD27 /// SNORD28 /// SNORD29 /// SNORD31 / Fold change vs veh, SNHG1 /// SNORD22 /// SNORD25 /// SNORD26 /// SNORD27 /// SNORD28 /// SNORD29 /// SNORD31 / Fold change (Aza/veh), C12orf56 (ProbeSet 11735607_a_at) / Fold change (ACY-1035/veh), C12orf56 (ProbeSet 11735607_a_at) / Fold change (Aza/veh), FGFR1OP (ProbeSet 11751329_s_at) / Fold change (ACY-1035/veh), FGFR1OP (ProbeSet 11751329_s_at) / Fold change (Aza/veh), VPS36 (ProbeSet 11739960_a_at) / Fold change (ACY-1035/veh), VPS36 (ProbeSet 11739960_a_at) / RFU SYPL1 (11715823_x_at) / Fold change /veh SYPL1 (11715823_x_at) / RFU IGFBP7 (11715501_s_at) / Fold change /veh IGFBP7 (11715501_s_at) / RFU REEP3 (11722064_at) / Fold change /veh REEP3 (11722064_at) / RFU IGLL1 (11728026_x_at) / Fold change /veh IGLL1 (11728026_x_at): dose or concentration left out as unconfirmed
# Conditions: MV-4-11 cells, 48 hours
smiles,measurement,value
Nc1ccc(-c2cccs2)cc1NC(=O)c1ccc2c(c1)cc(C1CC1)n2CCN1CCOCC1 [ACY-1035],Fold change /veh GSTM3 (11746129_a_at),0.96
